The values below come from patent publication US11633402B2, “RET inhibitor” (CHUGAI SEIYAKU KABUSHIKI KAISHA, priority 2012, dated 2023).

Series [1] deals with cell lines expressing KIF5B-RET. The conditions noted are these: J Clin Oncol 30, 2012, suppl; Abstract no: 7510; cited from earlier work.
For the next series, the system named is Ba/F3 KIF5B-RET cells. The series can be described thus: Cell growth inhibitory activity against KIF5B-RET-expressing Ba/F3 cells (CellTiter-Glo). The conditions noted are these: Mus musculus, BaF3, 48 h; read-out: cell growth inhibition IC50 value, Ba/F3 KIF5B-RET cells. The series is classed as cell-based. As to the method: An expression plasmid CS-GS104J-M67 (GeneCopoeia) containing KIF5B-RET variant 1 (gene in which a region from the N-terminus of KIF5B CDS to exon 15 was fused with a region from exon 12 of RET CDS to the C-terminus) (SEQ ID NO: 5) was transfected into mouse lymphocytes Ba/F3 (RIK FN Cell Bank) by electroporation. After transfection, the cells were cultured overnight in an RPMI-1640 medium (Sigma-Aldrich) containing 10% FBS (Bovogen Biologicals) and 1 ng/mL recombinant mouse IL-3 (R&D systems). Then, the culture supernatant was replaced with an RPMl-1640 medium containing 10% LBS. The cells were seeded into a 96-well plate by the limiting dilution method. Approximately 2 weeks later, the expression of phosphorylated RET in cells grown in the absence of IL-3 was detected by Western blotting. […]
The Ba/F3 KIF5B-RET cells were seeded into a 96-well plate at a concentration of 2,500 cells/well in an RPMI-1640 medium containing 10% FBS. […] After culture at 37° C. for 2 days in the presence of 5% CO2, a cell counting reagent CellTiter-Glo® Luminescent Cell Viability Assay (Pronged Corporation) was added thereto and stirred, followed by the measurement of luminescence intensity using a luminescence measurement apparatus Envision (PerkinElmer). […] The IC50 value was determined from the obtained values by the logistic regression method.
A general note: ATP-based viability assays read luminescence as a measure of living cells.

In the next series the test system is TT cells (RET C634W). Put plainly: Cell growth inhibitory activity against thyroid medullary cancer cell line TT (CellTiter-Glo). It is filed as cell-based. Conditions: Homo sapiens, 120 h, read-out: cell growth inhibition IC50 value, TT cells. As to the method: Cell growth inhibitory activity was evaluated using a thyroid medullary cancer cell line TT (American Type Culture Collection) with a RET kinase active mutation (C634W).
The TT cells were seeded into a 96-well plate at a concentration of 5,000 cells/well in F-12K Nutrient Mixture (Life Technologies Corporation) containing 10% FBS and cultured overnight at 37° C. in the presence of 5% CO2. […] Dimethyl sulfoxide was added as a negative control. After culture at 37° C. for 5 days in the presence of 5% CO2. a cell counting reagent CellTiter-Glo® Luminescent Cell Viability Assay was added thereto and stirred, followed by the measurement of luminescence intensity using a luminescence measurement apparatus Envision. The measurement value in a well supplemented with only a medium was defined as a cell viability of 0%, while the measurement value in a well supplemented with dimethyl sulfoxide was defined as a survival rate of 100%. […] The IC50 value was determined from the obtained values by the logistic regression method.

Series [2] relates to LC-2/ad cells (CCDC6-RET fusion gene). The series can be described thus: Cell growth inhibitory activity against non-small cell lung cancer cell line LC-2/ad (CellTiter-Glo). The series is classed as cell-based. Conditions: Homo sapiens, 120 h, read-out: cell growth inhibition IC50 value, LC-2/ad cells. The method, then:
Cell growth inhibitory activity was evaluated using a non-small cell lung cancer cell line LC-tad (R1KEN, J Thorac Oncol. 2012 December, 7 (12), 1872-6) harboring CCDC6-RET fusion gene.
The LC-2/ad cells were seeded into a 96-well plate at a concentration of 2,000 cells/well in a medium of a 1:1 mixture of RPMI-1640 and Ham containing 15% FBS and 25 mM HEPES and cultured overnight at 37° C. in the presence of 5% CO2. […] Dimethyl sulfoxide was added as a negative control. After culture at 37° C. for 5 days in the presence of 5% CO2, a cell counting reagent CellTiter-Glo® Luminescent Cell Viability Assay was added thereto and stirred, followed by the measurement of luminescence intensity using a luminescence measurement apparatus Envision. The measurement value in a well supplemented with only a medium was defined as a cell viability of 0%, while the measurement value in a well supplemented with dimethyl sulfoxide was defined as a cell viability of 100%. […] The IC50 value was determined from the obtained values by the logistic regression method.

Series [3] has as its system LC-2/ad-implanted mouse models. The series can be described thus: Antitumor activity in xenograft mouse model harboring CCDC6-RET fusion gene. The series is classed as in vivo. Conditions: SCID mice, oral once a day 20 mg/kg or 60 mg/kg for 14 days. An excerpt:
LC-2/ad was subcutaneously implanted to SCID mice and randomized after tumor size reached 200 to 350 mm^3. The administration of the compound was started on the day of randomization. The vehicles used for dissolving the compound were 0.02 N HCl, 10% dimethyl sulfoxide. 10% Cremophor EL, 15% PEG400 and 15% HPCD (2-hydroxypropyl-β-cyclodextrin) (indicated by final concentration).

The subject of series [4] is KIF5B-RET-expressing cells. Conditions: Nature Medicine 2012, 18, p. 378-381; cited from earlier work.
In the next series the target is RET (Homo sapiens, UniProt P07949). Conditions: high concentration (1,000 nM); Cancer Cell 19(5) 679-690, 2011; cited from earlier work.
Chain of RET (P07949 29-1114): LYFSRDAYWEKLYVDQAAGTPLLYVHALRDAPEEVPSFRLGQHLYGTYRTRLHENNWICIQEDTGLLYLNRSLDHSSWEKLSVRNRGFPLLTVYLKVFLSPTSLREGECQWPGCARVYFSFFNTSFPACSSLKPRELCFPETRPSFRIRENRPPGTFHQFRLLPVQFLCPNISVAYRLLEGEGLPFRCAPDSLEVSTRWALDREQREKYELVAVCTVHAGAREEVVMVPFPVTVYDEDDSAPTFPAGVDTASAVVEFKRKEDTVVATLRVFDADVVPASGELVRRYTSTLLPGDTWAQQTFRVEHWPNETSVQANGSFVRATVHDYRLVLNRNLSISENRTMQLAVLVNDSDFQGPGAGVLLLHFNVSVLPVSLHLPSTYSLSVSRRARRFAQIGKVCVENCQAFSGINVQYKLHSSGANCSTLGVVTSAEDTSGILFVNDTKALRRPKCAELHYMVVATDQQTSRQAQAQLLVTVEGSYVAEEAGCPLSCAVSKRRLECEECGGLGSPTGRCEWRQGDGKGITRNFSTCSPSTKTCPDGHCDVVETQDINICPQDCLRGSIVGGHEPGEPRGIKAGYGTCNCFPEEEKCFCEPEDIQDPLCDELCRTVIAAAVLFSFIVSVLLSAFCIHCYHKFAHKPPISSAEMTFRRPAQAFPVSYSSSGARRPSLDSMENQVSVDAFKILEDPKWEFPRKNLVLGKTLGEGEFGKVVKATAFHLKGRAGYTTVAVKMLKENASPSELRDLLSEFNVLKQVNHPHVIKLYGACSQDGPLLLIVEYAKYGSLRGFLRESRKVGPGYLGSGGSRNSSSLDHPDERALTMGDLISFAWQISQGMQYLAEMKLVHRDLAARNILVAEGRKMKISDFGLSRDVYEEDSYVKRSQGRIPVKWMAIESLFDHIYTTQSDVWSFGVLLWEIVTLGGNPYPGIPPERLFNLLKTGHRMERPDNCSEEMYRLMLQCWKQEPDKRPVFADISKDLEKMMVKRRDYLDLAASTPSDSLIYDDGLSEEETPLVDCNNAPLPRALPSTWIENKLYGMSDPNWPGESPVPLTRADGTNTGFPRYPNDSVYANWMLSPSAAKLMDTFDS

For the molecule `COc1cc2nccc(Oc3ccc(NC(=O)C4(C(=O)Nc5ccc(F)cc5)CC4)cc3)c2cc1OC` [XL184], in series [1], the “cell growth inhibitory effect against cell lines expressing KIF5B-RET” value is “cell growth inhibitory effect”.

For `CCc1cc2c(cc1N1CCC(N3CCOCC3)CC1)C(C)(C)c1[nH]c3cc(C#N)ccc3c1C2=O` [compound 1, 9-ethyl-6,6-dimethyl-8-(4-morpholin-4-yl-piperidin-1-yl)-11-oxo-6,11-dihydro-5H-benzo[b]carbazole-3-carbonitrile], the IC50 with Ba/F3 KIF5B-RET cells came to 86 nM; with TT cells (RET C634W), 190 nM; in series [2], 190 nM. In addition, the “antitumor activity (tumor growth)” value in series [3] (LC-2/ad subcutaneous) was “dose-dependent tumor growth inhibitory effect and tumor regression”. Besides, the body weight loss result in series [3] is “significant body weight loss of a mouse was not observed”. Consider `C[C@@H](Oc1cc(-c2cnn(C3CCNCC3)c2)cnc1N)c1c(Cl)ccc(F)c1Cl` [crizotinih], for which the “cell growth inhibitory activity against KIF5B-RET-expressing cells” value in series [4] is recorded as “no cell growth inhibitory activity”. Regarding `CCc1cc2c(cc1N1CCC(N3CCOCC3)CC1)C(C)(C)c1[nH]c3cc(C#N)ccc3c1C2=O` [drawing 3], the “kinase inhibition in Ambit Kinase Screening test” value on RET was “inhibits many kinases including RET”. On to `CNC(=O)c1cc(Oc2ccc(NC(=O)Nc3ccc(Cl)c(C(F)(F)F)c3)cc2)ccn1` [sorafenih], for which the “cell growth inhibitory effect against cell lines expressing KIF5B-RET” value in series [1] is on record as “cell growth inhibitory effect”.
